The values below are quoted from earlier work in patent US20180311274A1, “IN SITU NEUTRALIZATION COMPOSITION” (Kramer Laboratories, Inc., priority 2017, published 2018).

On to `Cc1cccc(N(C)C(=S)Oc2ccc3ccccc3c2)c1` [Tolnaftate], for which the solubility in water entry was “practically insoluble”.
